Key:
Assay in all cases: relative viability (nuclei count vs DMSO), 5 days (fraction); higher = more cells survive
[1] = tested on: NCI-H1648
How it was run: (§1)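 For relative viability, nuclei counts in treated wells were divided by those in vehicle wells. Lung cancer cell lines had been pin-tool dosed in 1536-well plates the day after seeding and cultured for 5 days, then fixed and stained in one step (final 0.05% Triton X-100, 1% formaldehyde, 1 ug/ml Hoechst) and imaged at 4×. Doses were one drug alone or a fixed anchor-drug dose plus five library-drug doses (not always all listed) in √10 steps, and values are duplicate-plate medians.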

[2] = tested on: LCLC-97TM1
How it was run: as §1

[3] = tested on: NCI-H596
How it was run: as §1

[4] = tested on: NCI-H1437
How it was run: as §1

[5] = tested on: NCI-H2342
How it was run: as §1

[6] = tested on: NCI-H1355
How it was run: as §1

[7] = tested on: NCI-H1703
How it was run: as §1

[8] = tested on: A549
How it was run: as §1

[9] = tested on: IA-LM
How it was run: as §1

## CN1CCN(CCOc2cc(OC3CCOCC3)c3c(Nc4c(Cl)ccc5c4OCO5)ncnc3c2)CC1 [Saracatinib] + NC(=O)Nc1cc(-c2cccc(F)c2)sc1C(=O)N[C@H]1CCCNC1 [AZD7762] (partner 0.2 µM)
[1]; first compound 0.02 µM
  relative viability: 0.79
[1]; first compound 0.2 µM
  relative viability: 0.633
[1]; first compound 0.6325 µM
  relative viability: 0.865
[1]; first compound 2 µM
  relative viability: 0.379
[2]; first compound 0.02 µM
  relative viability: 0.294
[2]; first compound 0.6325 µM
  relative viability: 0.398
[2]; first compound 2 µM
  relative viability: 0.265
[3]; first compound 0.02 µM
  relative viability: 1.12
[3]; first compound 0.2 µM
  relative viability: 1.05
[3]; first compound 0.6325 µM
  relative viability: 1.14
[3]; first compound 2 µM
  relative viability: 0.852
[4]; first compound 0.02 µM
  relative viability: 1.12
[4]; first compound 0.2 µM
  relative viability: 1.17
[4]; first compound 0.6325 µM
  relative viability: 1.17
[4]; first compound 2 µM
  relative viability: 1.07
[5]; first compound 0.02 µM
  relative viability: 0.721
[5]; first compound 0.2 µM
  relative viability: 0.471
[5]; first compound 0.6325 µM
  relative viability: 0.562
[5]; first compound 2 µM
  relative viability: 0.515
[6]; first compound 0.02 µM
  relative viability: 0.769
[6]; first compound 0.2 µM
  relative viability: 0.564
[6]; first compound 0.6325 µM
  relative viability: 0.719
[6]; first compound 2 µM
  relative viability: 0.715
[7]; first compound 0.02 µM
  relative viability: 0.136
[7]; first compound 0.6325 µM
  relative viability: 0.129
[7]; first compound 2 µM
  relative viability: 0.114

## Cc1csc(=NC2CCCCC2)n1/N=C/c1ccc(O)c(O)c1O [MIM1] + Nc1ncn([C@H]2C[C@H](O)[C@@H](CO)O2)c(=O)n1 [Decitabine] (partner 2 µM)
[1]; first compound 0.2 µM
  relative viability: 0.523
[1]; first compound 0.6325 µM
  relative viability: 0.376
[1]; first compound 2 µM
  relative viability: 0.486
[1]; first compound 6.325 µM
  relative viability: 0.382
[1]; first compound 20 µM
  relative viability: 0.35
[2]; first compound 0.2 µM
  relative viability: 0.245
[2]; first compound 0.6325 µM
  relative viability: 0.238
[2]; first compound 2 µM
  relative viability: 0.234
[2]; first compound 6.325 µM
  relative viability: 0.214
[2]; first compound 20 µM
  relative viability: 0.0699
[3]; first compound 0.2 µM
  relative viability: 1.09
[3]; first compound 0.6325 µM
  relative viability: 1.1
[3]; first compound 2 µM
  relative viability: 0.831
[3]; first compound 6.325 µM
  relative viability: 0.84
[3]; first compound 20 µM
  relative viability: 0.841
[4]; first compound 0.2 µM
  relative viability: 0.592
[4]; first compound 0.6325 µM
  relative viability: 0.547
[4]; first compound 2 µM
  relative viability: 0.586
[4]; first compound 6.325 µM
  relative viability: 0.368
[4]; first compound 20 µM
  relative viability: 0.303
[8]; first compound 0.2 µM
  relative viability: 0.217
[8]; first compound 0.6325 µM
  relative viability: 0.208
[8]; first compound 2 µM
  relative viability: 0.353
[8]; first compound 6.325 µM
  relative viability: 0.272
[8]; first compound 20 µM
  relative viability: 0.0686
[5]; first compound 0.2 µM
  relative viability: 0.724
[5]; first compound 0.6325 µM
  relative viability: 0.721
[5]; first compound 2 µM
  relative viability: 0.708
[5]; first compound 6.325 µM
  relative viability: 0.664
[5]; first compound 20 µM
  relative viability: 0.724
[6]; first compound 0.2 µM
  relative viability: 0.361
[6]; first compound 0.6325 µM
  relative viability: 0.343
[6]; first compound 2 µM
  relative viability: 0.386
[6]; first compound 6.325 µM
  relative viability: 0.339
[6]; first compound 20 µM
  relative viability: 0.332

## Cc1cn(-c2cc(NC(=O)c3ccc(C)c(Nc4nccc(-c5cccnc5)n4)c3)cc(C(F)(F)F)c2)cn1 [Nilotinib] + O=C(CCCCCCC(=O)Nc1ccccc1)NO [Vorinostat] (partner 1 µM)
[1]; first compound 0.001 µM
  relative viability: 0.394
[1]; first compound 0.003162 µM
  relative viability: 0.367
[1]; first compound 0.01 µM
  relative viability: 0.372
[1]; first compound 0.03162 µM
  relative viability: 0.172
[2]; first compound 0.001 µM
  relative viability: 0.605
[2]; first compound 0.003162 µM
  relative viability: 0.891
[2]; first compound 0.01 µM
  relative viability: 0.964
[2]; first compound 0.03162 µM
  relative viability: 0.515
[2]; first compound 0.1 µM
  relative viability: 0.102
[3]; first compound 0.001 µM
  relative viability: 0.518
[3]; first compound 0.003162 µM
  relative viability: 0.455
[3]; first compound 0.01 µM
  relative viability: 0.651
[3]; first compound 0.03162 µM
  relative viability: 0.532
[3]; first compound 0.1 µM
  relative viability: 0.498
[4]; first compound 0.001 µM
  relative viability: 0.664
[4]; first compound 0.003162 µM
  relative viability: 0.97
[4]; first compound 0.01 µM
  relative viability: 0.878
[4]; first compound 0.03162 µM
  relative viability: 0.506
[4]; first compound 0.1 µM
  relative viability: 0.583
[5]; first compound 0.001 µM
  relative viability: 0.675
[5]; first compound 0.003162 µM
  relative viability: 0.685
[5]; first compound 0.01 µM
  relative viability: 0.668
[5]; first compound 0.03162 µM
  relative viability: 0.681
[5]; first compound 0.1 µM
  relative viability: 0.655
[6]; first compound 0.001 µM
  relative viability: 0.6
[6]; first compound 0.003162 µM
  relative viability: 0.695
[6]; first compound 0.01 µM
  relative viability: 0.67
[6]; first compound 0.03162 µM
  relative viability: 0.59
[6]; first compound 0.1 µM
  relative viability: 0.335
[9]; first compound 0.001 µM
  relative viability: 0.526
[9]; first compound 0.01 µM
  relative viability: 0.987
[9]; first compound 0.03162 µM
  relative viability: 0.352
[9]; first compound 0.1 µM
  relative viability: 0.841
